According to paper PMC11475281, “A Novel Liver Cancer-Selective Histone Deacetylase Inhibitor Is Effective against Hepatocellular Carcinoma and Induces Durable Responses with Immunotherapy” (ACS Pharmacology & Translational Science, 2024):

Experiments:
[1] = Tissue distribution by LC-MS; assay type: in vivo; details: both sexes, healthy mice, i.p. 25 mg/kg
Experimental: To determine if liver tissue accumulation plays a role in the observed in vivo efficacy of STR-V-53, we used LC-MS to evaluate the distribution of STR-V-53 in selected tissues (liver and lungs) and plasma. We analyzed samples from healthy mice exposed to STR-V-53 (i.p. injection) at 25 mg/kg for 8 h. […] The average level of STR-V-53 in circulation in the plasma of healthy mice was ∼ […] 8 h postinjection. In contrast, the level of STR-V-53 in the liver was approximately 4 times its plasma level (Figure 5d). […]
for another 48 h. Cells were washed with cold 1x PBS solution twice and trypsinized.
Subsequently, cells were collected using 5 mL 1x PBS buffer and fixed overnight at -20 °C using 70% ethanol. Cells were centrifuged in 1x PBS on day 2 at 4 °C with a spin speed of 3,000g, re-suspended in 1x PBS, and centrifuged again under the same condition. The supernatant was removed, and the cell pellets were re-suspended with 500 µL of 200 ug/mL RNase for 30 min.
(§1) Then cells were treated with another 500 µL of 100 ug/mL PI staining at room temperature for 30 min. The cell cycle was analyzed with BD FACS Aria Illu analyzer, and the data were […]
The stability of STR-V-53 in murine and human plasmas was determined through a contract agreement with Cyprotex, an Evotec Company (https://www.cyprotex.com)
Maximum tolerated dose determination
C57BL/6 mice, 6–8 weeks old, 3 males and 3 females per treatment group, were injected […]
days in Kolliphor/DMA/water vehicle. We measured body weight and monitored daily food consumption, overall health, and mortality. On the eighth day, mice were sacrificed by cervical dislocation, and organs were harvested and frozen at −80 ◦C.
Tissue distribution studies
C57Bl/6 mice, 6–8 weeks old, 3 males and 3 females per treatment group, were injected […]
the injection, organs were harvested and frozen at −80 °C for subsequent quantification by LC-

Hep-G2 cells = experiment: RNA-seq differential gene expression vs DMSO control; assay type: cell-based, human
Experimental: To obtain transcriptome level evidence that may shed light on the HCC-selectivity and/or the enhanced potency of the combination of STR-V-53 with anti-PD-1 antibody, we performed RNA sequencing (RNA-seq) analysis on STR-V-53-treated Hep-G2 cells, incubated at IC50 and 2× IC50 for 24 h, relative to the untreated (DMSO) control. We first conducted gene set enrichment analysis (GSEA) using hallmark and gene ontology biological process (GOBP) gene sets to analyze the effect of STR-V-53 vs DMSO-treated control on the Hep-G2 transcriptome.[42],[43] […] Negative enrichment of the G2 M checkpoint pathway supports the finding that STR-V-53 induced S phase arrest in Hep-G2 cells (see Figure 4).
Subsequently, we focused our analysis on specific genes of interest, including gene signatures for HDAC inhibition and immune response pathways. […]
and allowed to grow for 48 hours.
RCF, with this washing step repeated twice. Next, using RNeasy Plus Mini Kit and Qiagen QIAcube […]
determined using a DeNovix spectrophotometer. Subsequently, quality control of the RNA samples was […]
(base call error rate of […]).
FASTQ files of samples were analyzed through the RNA-seq pipeline provided by the Gryder lab1. Reads were aligned to hg38 using STAR version 2.5.3a, and gene expression was calculated as Transcripts per Million mapped reads (TPM) using RSEM version 1.3.3 and filtered for coding genes. Differentially expressed genes lists were generated for each sample by calculating log2 fold change of the averaged sample TPM versus the averaged DMSO-treated control cells TPM and filtering for genes with |log2 fold change| > -1 and false discovery rate < 0.25. Hallmark2 and gene ontology biological processes (GOBP)3 gene set enrichment analysis (GSEA) was performed on the differentially expressed gene lists using the GSEA software (parameters: Run GSEAPreranked, Collapse/Remap- No_Collapse)4. GSEA results were interpreted and visualized using scripts provided by the Gryder lab1.Volcano plots were generated using DESeq2v1.41.1 and visualized with the ggplot2 R packages5,6. […]

hERG = hERG (Homo sapiens, UniProt Q12809); experiment: In vitro hERG inhibition assay; details: maximum tested concentration of 100 μM
Chain of hERG (Q12809 whole entry, canonical isoform): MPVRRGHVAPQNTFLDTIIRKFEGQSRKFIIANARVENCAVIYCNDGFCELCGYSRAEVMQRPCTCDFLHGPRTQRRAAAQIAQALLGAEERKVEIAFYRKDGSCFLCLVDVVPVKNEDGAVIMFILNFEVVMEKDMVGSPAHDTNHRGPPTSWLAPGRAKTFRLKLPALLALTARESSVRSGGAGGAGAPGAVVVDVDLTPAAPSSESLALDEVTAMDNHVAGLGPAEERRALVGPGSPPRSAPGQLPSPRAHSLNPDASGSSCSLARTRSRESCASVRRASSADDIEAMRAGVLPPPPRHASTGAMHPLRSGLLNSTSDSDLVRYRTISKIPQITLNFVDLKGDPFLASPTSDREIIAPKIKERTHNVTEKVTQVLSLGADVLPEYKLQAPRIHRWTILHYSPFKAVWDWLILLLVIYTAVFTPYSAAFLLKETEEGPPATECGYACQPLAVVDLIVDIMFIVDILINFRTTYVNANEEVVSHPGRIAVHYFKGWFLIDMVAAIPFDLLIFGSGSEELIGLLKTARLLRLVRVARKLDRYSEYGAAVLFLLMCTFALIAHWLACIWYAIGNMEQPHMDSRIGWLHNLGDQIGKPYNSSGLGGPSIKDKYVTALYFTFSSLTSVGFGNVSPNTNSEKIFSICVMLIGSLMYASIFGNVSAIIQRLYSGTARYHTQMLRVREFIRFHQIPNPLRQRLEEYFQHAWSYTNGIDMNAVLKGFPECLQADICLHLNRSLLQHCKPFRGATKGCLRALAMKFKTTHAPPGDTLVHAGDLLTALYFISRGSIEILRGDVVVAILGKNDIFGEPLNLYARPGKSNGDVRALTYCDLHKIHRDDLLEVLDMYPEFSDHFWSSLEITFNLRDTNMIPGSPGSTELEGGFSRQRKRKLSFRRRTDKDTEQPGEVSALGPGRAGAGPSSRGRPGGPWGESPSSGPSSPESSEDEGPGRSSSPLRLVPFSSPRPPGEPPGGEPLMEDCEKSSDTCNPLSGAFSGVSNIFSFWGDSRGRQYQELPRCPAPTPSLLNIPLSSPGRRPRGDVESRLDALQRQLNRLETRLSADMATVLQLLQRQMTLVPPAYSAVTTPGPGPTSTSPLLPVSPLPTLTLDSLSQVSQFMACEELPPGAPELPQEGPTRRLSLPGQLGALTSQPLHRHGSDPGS

HDAC5 = HDAC5 (Homo sapiens, UniProt Q9UQL6); experiment: HDAC isoform inhibition (BPS Bioscience)
Chain of HDAC5 (Q9UQL6 whole entry, canonical isoform): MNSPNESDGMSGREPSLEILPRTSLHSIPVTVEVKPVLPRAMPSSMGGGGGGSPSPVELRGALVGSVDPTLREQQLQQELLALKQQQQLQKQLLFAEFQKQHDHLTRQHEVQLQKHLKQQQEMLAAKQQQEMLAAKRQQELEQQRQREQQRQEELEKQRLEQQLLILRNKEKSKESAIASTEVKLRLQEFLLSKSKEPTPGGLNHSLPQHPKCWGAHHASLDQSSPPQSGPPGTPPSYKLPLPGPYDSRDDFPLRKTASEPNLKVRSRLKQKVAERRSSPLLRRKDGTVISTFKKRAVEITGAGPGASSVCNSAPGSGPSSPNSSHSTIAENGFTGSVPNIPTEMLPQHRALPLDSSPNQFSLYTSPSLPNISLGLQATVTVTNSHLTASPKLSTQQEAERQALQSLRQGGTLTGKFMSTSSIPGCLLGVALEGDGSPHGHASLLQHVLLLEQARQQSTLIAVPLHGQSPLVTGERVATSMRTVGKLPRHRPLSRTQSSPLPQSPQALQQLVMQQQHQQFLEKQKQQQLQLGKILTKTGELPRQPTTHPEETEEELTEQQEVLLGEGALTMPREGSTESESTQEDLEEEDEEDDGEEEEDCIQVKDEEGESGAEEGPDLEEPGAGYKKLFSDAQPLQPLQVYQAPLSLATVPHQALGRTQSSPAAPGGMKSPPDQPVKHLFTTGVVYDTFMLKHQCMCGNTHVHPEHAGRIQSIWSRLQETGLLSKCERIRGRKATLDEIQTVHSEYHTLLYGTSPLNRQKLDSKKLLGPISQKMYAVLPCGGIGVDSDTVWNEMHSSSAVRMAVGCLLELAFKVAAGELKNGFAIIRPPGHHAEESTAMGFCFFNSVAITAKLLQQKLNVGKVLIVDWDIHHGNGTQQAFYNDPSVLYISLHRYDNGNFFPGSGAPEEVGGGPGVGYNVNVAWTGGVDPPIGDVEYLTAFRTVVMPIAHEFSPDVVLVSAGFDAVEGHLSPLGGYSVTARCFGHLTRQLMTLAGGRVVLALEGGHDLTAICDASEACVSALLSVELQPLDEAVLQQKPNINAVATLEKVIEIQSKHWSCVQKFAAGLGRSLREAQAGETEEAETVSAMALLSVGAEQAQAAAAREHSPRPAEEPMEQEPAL

healthy C57Bl/6 mice = experiment: Maximum tolerated dose determination; assay type: in vivo; details: 100 mg/kg i.p. daily for 6 days
Experimental: (§2) Based on the data from the aforementioned in vitro studies, we selected STR-V-53 as a candidate for further evaluation in xenograft and murine models of HCC. Before the efficacy studies, we first determined the plasma stability (murine and human) and maximum tolerated dose (MTD) of STR-V-53 in healthy C57Bl/6 mice. […]. For MTD determination, STR-V-53 was administered via i.p. injection using a formulation containing excipients found in FDA-approved drugs—dimethylacetamide (DMA)/Cremophor RH 40 (CRH)/Water (10%/20%/70%)—that we developed.[17] […]
as §1
(§3) The stability of STR-V-53 in murine and human plasmas was determined through a contract agreement with Cyprotex, an Evotec Company (https://www.cyprotex.com) […]
(§4) days in Kolliphor/DMA/water vehicle. We measured body weight and monitored daily food consumption, overall health, and mortality. […]
(§5) C57Bl/6 mice, 6–8 weeks old, 3 males and 3 females per treatment group, were injected intraperitoneally with STR-V-53 at […] in Kolliphor/DMA/water vehicle. Eight hours after the injection, organs were harvested and frozen at −80 °C for subsequent quantification by LC-

[2] = Plasma stability (Cyprotex); assay type: in vitro ADME
Experimental: as §2, §1, §3, §4, §5

Compound: O=C(CCCCCCn1cc(-c2ccc(O[C@H]3O[C@H](CO)[C@@H](O)[C@H](O)[C@H]3O)cc2)nn1)NO [STR-V-53]
- Kp at 8 h ([1]; C57Bl/6, mouse, liver (relative to plasma), ip, 8 h, read-out: Level in the liver relative to plasma level): ~4
- concentration at 8 h ([1]; C57Bl/6, mouse, plasma, ip, 8 h postinjection, read-out: Average level in plasma): ~0.01 ng/mL
- Level in the lungs ([1]; 8 h): below the detection limit
- ANP32B log2 fold change (Hep-G2 cells; 2× IC50 (20 μM), 24 h): −2.3
- CCL16 log2 fold change (Hep-G2 cells; 2× IC50 (20 μM), 24 h): −1.8
- CCL20 log2 fold change (Hep-G2 cells; 2× IC50 (20 μM), 24 h): 0.9
- CCL25 log2 fold change (Hep-G2 cells; 2× IC50 (20 μM), 24 h): 1.2
- CCL26 log2 fold change (Hep-G2 cells; 2× IC50 (20 μM), 24 h): 2.9
- CDKN1A (p21) log2 fold change (Hep-G2 cells; 2× IC50 (20 μM), 24 h): 3.3
- CX3CL1 log2 fold change (Hep-G2 cells; 2× IC50 (20 μM), 24 h): −1.7
- CXCL8 log2 fold change (Hep-G2 cells; 2× IC50 (20 μM), 24 h): −2.0
- CXCL11 log2 fold change (Hep-G2 cells; 2× IC50 (20 μM), 24 h): 1.3
- DKK-1 log2 fold change (Hep-G2 cells; 2× IC50 (20 μM), 24 h): 6.2
- MT1X log2 fold change (Hep-G2 cells; 2× IC50 (20 μM), 24 h): 3.4
- PDCD1 log2 fold change (Hep-G2 cells; 2× IC50 (20 μM), 24 h): 3.0
- TUBA1A log2 fold change (Hep-G2 cells; 2× IC50 (20 μM), 24 h): 5.4
- TYMS log2 fold change (Hep-G2 cells; 2× IC50 (20 μM), 24 h): −3.6
- Expression of MHC (HLA) complex, CD8+, and PD-1 (PDCD1) /PD-L1 (CD274) genes (Hep-G2 cells; Hep-G2, RNA-seq, 24 h): upregulates
- Expression of GLUTs 1, 2, 9, and 14 (Hep-G2 cells; Hep-G2, within 24 h of uptake): downregulation
- Expression of GLUTs 3, 4, 6, and 12 (Hep-G2 cells; Hep-G2, within 24 h of uptake): upregulation
- ANP32B log2 fold change (Hep-G2 cells; IC50 (10 μM), 24 h): −1.8
- CCL16 log2 fold change (Hep-G2 cells; IC50 (10 μM), 24 h): −1.0
- CCL20 log2 fold change (Hep-G2 cells; IC50 (10 μM), 24 h): 1.9
- CCL25 log2 fold change (Hep-G2 cells; IC50 (10 μM), 24 h): 0.9
- CCL26 log2 fold change (Hep-G2 cells; IC50 (10 μM), 24 h): 2.1
- CDKN1A (p21) log2 fold change (Hep-G2 cells; IC50 (10 μM), 24 h): 3.1
- CX3CL1 log2 fold change (Hep-G2 cells; IC50 (10 μM), 24 h): −1.5
- CXCL8 log2 fold change (Hep-G2 cells; IC50 (10 μM), 24 h): −1.6
- CXCL11 log2 fold change (Hep-G2 cells; IC50 (10 μM), 24 h): 1.1
- DKK-1 log2 fold change (Hep-G2 cells; IC50 (10 μM), 24 h): 6.5
- MT1X log2 fold change (Hep-G2 cells; IC50 (10 μM), 24 h): 2.9
- PDCD1 log2 fold change (Hep-G2 cells; IC50 (10 μM), 24 h): 2.1
- TUBA1A log2 fold change (Hep-G2 cells; IC50 (10 μM), 24 h): 4.7
- TYMS log2 fold change (Hep-G2 cells; IC50 (10 μM), 24 h): −3.2
- hERG inhibition (hERG): no inhibition
- IC50 (HDAC5): 7 µM
- Body weight as an indicator of toxicity (healthy C57Bl/6 mice): no significant body weight loss
- half-life ([2]; human plasma): > 1200 min
- half-life ([2]; mouse, murine plasma): 46 min
